This is an account of results in ChEMBL document CHEMBL3813616, “Discovery of novel 7-azaindoles as PDK1 inhibitors” (Bioorg Med Chem Lett, 2016).

The target in assay [1] is T1, Inhibitor of nuclear factor kappa-B kinase subunit epsilon (Homo sapiens) (UniProt Q14164).
T1 sequence (whole entry): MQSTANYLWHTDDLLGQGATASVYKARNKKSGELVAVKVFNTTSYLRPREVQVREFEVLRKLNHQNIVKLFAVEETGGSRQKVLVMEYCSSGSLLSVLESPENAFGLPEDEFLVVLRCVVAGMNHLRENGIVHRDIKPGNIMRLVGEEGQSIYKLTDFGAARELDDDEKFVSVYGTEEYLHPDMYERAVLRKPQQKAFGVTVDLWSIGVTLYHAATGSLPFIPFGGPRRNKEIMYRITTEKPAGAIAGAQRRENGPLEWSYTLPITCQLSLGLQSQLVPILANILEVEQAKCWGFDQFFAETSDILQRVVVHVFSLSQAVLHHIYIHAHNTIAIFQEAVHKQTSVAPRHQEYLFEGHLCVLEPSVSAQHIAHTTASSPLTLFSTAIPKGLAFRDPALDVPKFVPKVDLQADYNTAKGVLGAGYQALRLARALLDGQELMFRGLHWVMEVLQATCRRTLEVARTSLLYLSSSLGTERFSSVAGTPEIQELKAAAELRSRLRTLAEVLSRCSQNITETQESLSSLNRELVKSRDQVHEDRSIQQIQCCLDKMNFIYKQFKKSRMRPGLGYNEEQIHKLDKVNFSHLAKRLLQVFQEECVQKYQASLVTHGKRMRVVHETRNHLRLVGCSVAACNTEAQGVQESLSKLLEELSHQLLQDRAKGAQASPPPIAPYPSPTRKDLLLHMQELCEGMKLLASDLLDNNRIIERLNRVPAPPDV
Briefly: Inhibition of human IKBKE (1 to 716 residues) assessed as enzyme activity at 1 uM using 33P ATP by radioactive filter binding assay. Further details: scale not given: the % may be the effect or the level left.

Assay [2] concerns the target Mitogen-activated protein kinase 3 (Homo sapiens) (UniProt P27361). Briefly: Inhibition of human MAPK3 (2 to 544 residues) assessed as enzyme activity at 1 uM using 33P ATP by radioactive filter binding assay. Also noted: scale not given: the % may be the effect or the level left.
The target in assay [3] is MAP kinase-interacting serine/threonine-protein kinase 2 (Homo sapiens) (UniProt Q9HBH9). Briefly: Inhibition of human MNK2alpha (2 to 465 residues) assessed as enzyme activity at 1 uM using 33P ATP by radioactive filter binding assay. Further details: scale not given: the % may be the effect or the level left.
The target of assay [4] is T2, 3-phosphoinositide-dependent protein kinase 1 (Homo sapiens) (UniProt O15530).
T2 sequence (whole entry): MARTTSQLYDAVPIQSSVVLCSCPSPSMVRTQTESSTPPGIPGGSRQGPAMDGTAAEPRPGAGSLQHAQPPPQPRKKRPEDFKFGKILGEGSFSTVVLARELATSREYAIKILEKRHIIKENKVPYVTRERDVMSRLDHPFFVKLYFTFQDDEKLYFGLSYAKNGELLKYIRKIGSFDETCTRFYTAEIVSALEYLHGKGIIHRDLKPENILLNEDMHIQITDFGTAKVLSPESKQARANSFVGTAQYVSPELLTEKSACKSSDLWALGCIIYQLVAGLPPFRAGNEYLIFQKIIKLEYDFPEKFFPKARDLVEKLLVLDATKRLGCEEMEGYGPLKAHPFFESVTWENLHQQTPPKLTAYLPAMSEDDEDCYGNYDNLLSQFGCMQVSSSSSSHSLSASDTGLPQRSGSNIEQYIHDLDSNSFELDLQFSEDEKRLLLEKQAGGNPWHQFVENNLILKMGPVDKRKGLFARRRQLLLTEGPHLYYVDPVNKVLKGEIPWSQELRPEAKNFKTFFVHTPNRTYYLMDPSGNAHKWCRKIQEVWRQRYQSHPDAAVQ
Briefly: Inhibition of human PDK1 (52 to 556 residues) assessed as enzyme activity at 1 uM using 33P ATP by radioactive filter binding assay. Further details: scale not given: the % may be the effect or the level left.

Assay [5] addresses Serine/threonine-protein kinase pim-3 (Homo sapiens) (UniProt Q86V86). As to the kind of experiment: Inhibition of human PIM3 (2 to 326 residues) assessed as enzyme activity at 1 uM using 33P ATP by radioactive filter binding assay. Also noted: scale not given: the % may be the effect or the level left.
In assay [6] the target is T3, 3-phosphoinositide-dependent protein kinase 1 (Homo sapiens, UniProt O15530).
T3 sequence (O15530 whole entry): T2 sequence (whole entry)
As to the kind of experiment: Inhibition of human His6-tagged PDK1 using biotinylated PDKtide as substrate after 60 mins by topcount method.

For assay [7], the target named is T4, Serine/threonine-protein kinase BRSK2 (Homo sapiens) (UniProt Q8IWQ3).
T4 sequence (whole entry): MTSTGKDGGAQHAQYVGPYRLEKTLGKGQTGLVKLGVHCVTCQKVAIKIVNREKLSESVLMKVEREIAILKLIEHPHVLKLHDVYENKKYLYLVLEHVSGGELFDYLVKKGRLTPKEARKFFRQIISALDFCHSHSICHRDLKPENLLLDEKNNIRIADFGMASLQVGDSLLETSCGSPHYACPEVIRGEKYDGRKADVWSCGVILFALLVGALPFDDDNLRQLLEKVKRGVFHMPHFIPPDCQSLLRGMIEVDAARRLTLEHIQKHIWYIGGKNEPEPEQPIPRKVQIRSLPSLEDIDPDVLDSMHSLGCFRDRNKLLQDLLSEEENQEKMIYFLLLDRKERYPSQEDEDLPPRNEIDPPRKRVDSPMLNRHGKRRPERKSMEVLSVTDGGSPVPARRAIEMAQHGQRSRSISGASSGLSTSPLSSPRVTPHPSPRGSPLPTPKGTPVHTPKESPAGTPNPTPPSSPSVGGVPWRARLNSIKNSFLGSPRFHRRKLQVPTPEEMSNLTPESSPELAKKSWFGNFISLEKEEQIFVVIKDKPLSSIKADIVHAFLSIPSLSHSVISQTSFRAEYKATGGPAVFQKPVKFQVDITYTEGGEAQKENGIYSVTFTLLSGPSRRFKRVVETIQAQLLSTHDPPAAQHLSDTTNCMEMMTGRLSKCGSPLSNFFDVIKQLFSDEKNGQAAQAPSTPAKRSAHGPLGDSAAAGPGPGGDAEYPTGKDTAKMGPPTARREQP
Briefly: Inhibition of human BRSK2 (2 to 674 residues) assessed as enzyme activity at 1 uM using 33P ATP by radioactive filter binding assay. Further details: scale not given: the % may be the effect or the level left.

Sequence of Mitogen-activated protein kinase 3 (Homo sapiens) (P27361 whole entry, the tested form may be a part): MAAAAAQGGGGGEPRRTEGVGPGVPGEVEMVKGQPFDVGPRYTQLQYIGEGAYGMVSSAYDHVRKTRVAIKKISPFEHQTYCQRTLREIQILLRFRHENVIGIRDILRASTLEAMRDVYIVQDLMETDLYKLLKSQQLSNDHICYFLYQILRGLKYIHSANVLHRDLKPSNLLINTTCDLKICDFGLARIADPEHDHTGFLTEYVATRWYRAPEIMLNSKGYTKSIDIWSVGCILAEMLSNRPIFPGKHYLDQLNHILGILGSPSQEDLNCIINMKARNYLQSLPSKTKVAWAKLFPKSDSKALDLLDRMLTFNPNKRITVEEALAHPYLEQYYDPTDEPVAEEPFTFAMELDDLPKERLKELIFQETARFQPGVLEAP
Sequence of MAP kinase-interacting serine/threonine-protein kinase 2 (Homo sapiens) (Q9HBH9 whole entry, looked up, the tested form may be a part): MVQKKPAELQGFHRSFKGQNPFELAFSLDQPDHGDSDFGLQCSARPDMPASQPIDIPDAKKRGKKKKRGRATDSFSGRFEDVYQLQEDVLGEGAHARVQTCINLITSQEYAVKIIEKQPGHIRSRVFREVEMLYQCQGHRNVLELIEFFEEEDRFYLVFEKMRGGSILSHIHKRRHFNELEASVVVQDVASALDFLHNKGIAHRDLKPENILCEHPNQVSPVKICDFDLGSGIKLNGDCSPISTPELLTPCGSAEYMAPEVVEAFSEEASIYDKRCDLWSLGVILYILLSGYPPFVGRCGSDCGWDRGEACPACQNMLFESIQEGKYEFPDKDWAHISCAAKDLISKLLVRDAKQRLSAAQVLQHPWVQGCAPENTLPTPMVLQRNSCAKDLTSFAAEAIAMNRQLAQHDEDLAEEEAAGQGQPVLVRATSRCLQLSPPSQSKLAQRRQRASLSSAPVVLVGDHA

The term IC50 denotes the concentration that gives 50% inhibition. Regarding `CCCCc1cc(-c2c[nH]c3ncc(-c4cnn(C5CCNCC5)c4)cc23)nc(N)n1`, the Activity in assay [1] is -91%; in assay [2], -97%; in assay [3], -42%; in assay [4], -92%; in assay [5], -98%; in assay [7] it was -65%. Also, half-maximal inhibition in assay [6] (IC50) was put at 84 nM.
As to `CCCCc1cc(-c2c[nH]c3ncccc23)nc(N)n1`, the Activity was -48% in assay [1]; -54% in assay [2]; -15% in assay [3]; -54% in assay [4]; -70% in assay [5]; -12% in assay [7]. The same molecule returned a 50% inhibitory concentration (IC50) in assay [6] of 1100 nM.
Consider `CCc1cc(-c2c[nH]c3ncc(-c4cnn(C5CCNCC5)c4)cc23)nc(N)n1`, for which the Activity was -78% in assay [1]; -95% in assay [2]; -49% in assay [3]; -80% in assay [4]; -91% in assay [5]; -65% in assay [7]. Also, in assay [6], the IC50 stood at 58 nM.
Consider `Nc1nccc(-c2c[nH]c3ncccc23)n1` [MERIOLIN 1], for which the Activity was -22% in assay [1]; -77% in assay [2]; -35% in assay [3]; -12% in assay [4]; -61% in assay [5]; -16% in assay [7]. The molecule also displayed an IC50 in assay [6] of 5900 nM.
